Holding throughout (assay): selective drug sensitivity score (sDSS, relative to normal bone marrow) (sDSS (score)); higher = more potent and effective on the cell line relative to normal bone marrow cells
Common to all, as to details: 72 h

Assay [1] relates to ALL-PO.
Assay [2] deals with KASUMI-2.
The test system of assay [3] is MOLT-14.
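Also: ALL cell lines in 384-well plates, five doses spanning 10,000-fold, each plate scaled between vehicle and 100 µmol/L benzalkonium chloride controls, sDSS an adapted area-under-curve metric.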

As to `O=C(Nc1nc2cccc(-c3ccc(CN4CCS(=O)(=O)CC4)cc3)n2n1)C1CC1` [Filgotinib] (top concentration 10000 nM), the figures for the “selective drug sensitivity score” value in assay [1], in assay [2] and in assay [3] were 6.16, -0.74 and -0.44, respectively.

With `COc1cc(Nc2ncc(F)c(Nc3ccc4c(n3)NC(=O)C(C)(C)O4)n2)cc(OC)c1OC` [Tamatinib] (top concentration 10000 nM), the “selective drug sensitivity score” value in assay [1] is 9.98; in assay [2] it was -5.42; in assay [3] it was -4.62.

On to `NC(=O)/C(=C/n1cnc(-c2cc(C(F)(F)F)cc(C(F)(F)F)c2)n1)c1cncnc1` [Eltanexor] (top concentration 10000 nM), for which the “selective drug sensitivity score” value in assay [1] turned out to be 11.4; in assay [2], 16.8; in assay [3], 15.4.

As for `CN1CCC(CNc2ccc3ncc(-c4cccc(OC(F)(F)F)c4)n3n2)CC1` [SGI-1776] (top concentration 10000 nM), the “selective drug sensitivity score” value in assay [1] came out at 7.02; in assay [2] it was 0.62; in assay [3] it was 0.32.

As for `CCCCCCCCCCCCCCCCOP(=O)([O-])OCC[N+](C)(C)C` [Miltefosine] (top concentration 100000 nM), the “selective drug sensitivity score” value in assay [1] was determined as 2.26; in assay [2] it was 1.76; in assay [3] it was 0.76.

Consider `O=C(/C=C/c1cccc(S(=O)(=O)Nc2ccccc2)c1)NO` [Belinostat] (top concentration 10000 nM), for which the results for the “selective drug sensitivity score” value in assay [1], in assay [2] and in assay [3] were 11.4, 17.4 and 12.2, respectively.

Consider `CC(C)(C)Cn1c(N)nc2ccc(-c3[nH]c(C(C)(C)C)nc3-c3ccc(F)cc3)nc21` [Ralimetinib] (top concentration 10000 nM), for which the “selective drug sensitivity score” value in assay [1] amounted to 8.56; in assay [2] it was 1.56; in assay [3], 6.96.

On to `Nc1ccccc1NC(=O)c1ccc(CNC(=O)OCc2cccnc2)cc1` [Entinostat] (top concentration 10000 nM), for which the “selective drug sensitivity score” value amounted to 4.08 in assay [1], 7.68 in assay [2] and 7.98 in assay [3].

As for `CCNC(=O)C[C@@H]1N=C(c2ccc(Cl)cc2)c2cc(OC)ccc2-n2c(C)nnc21` [Molibresib] (top concentration 10000 nM), the “selective drug sensitivity score” value in assay [1] is 3.6; in assay [2] it was -2.7; in assay [3], -2.1.

For the compound `COc1cc(Nc2ncc3c(n2)-c2ccc(Cl)cc2C(c2c(F)cccc2OC)=NC3)ccc1C(=O)O` [Alisertib] (top concentration 10000 nM), the “selective drug sensitivity score” value in assay [1] worked out at 15.6; in assay [2], 18.5; in assay [3], 21.

`Cc1c(-c2c(-c3ccc(F)o3)sc3ncnc(O[C@H](Cc4ccccc4OCc4ccnn4CC(F)(F)F)C(=O)O)c23)ccc(OCCN2CCN(C)CC2)c1Cl` (top concentration 1000 nM): the “selective drug sensitivity score” value in assay [1] is -7.74; in assay [2], -4.34; in assay [3], 3.06.

Consider `Cc1ncc(Cl)cc1NCc1ccc(C(=O)N[C@@H](CC2CCCC2)C(=O)NC2CC2)s1` (top concentration 5000 nM), for which the “selective drug sensitivity score” value is -0.94 in assay [1], 4.56 in assay [2] and 2.96 in assay [3].

With `Nc1ccccc1NC(=O)c1ccc(CNc2nccc(-c3cccnc3)n2)cc1` [Mocetinostat] (top concentration 10000 nM), the “selective drug sensitivity score” value came to 7.24 in assay [1], 6.74 in assay [2] and 9.14 in assay [3].

As to `Cn1cc(CNCC2CCN(c3ncc(C(=O)NO)cn3)CC2)c2ccccc21` [Quisinostat] (top concentration 1000 nM), the “selective drug sensitivity score” value in assay [1] was found to be 5.98; in assay [2], 12.4; in assay [3], 6.98.

On to `CC(C)[C@@H](CS(=O)(=O)C(C)C)N1C(=O)[C@@](C)(CC(=O)O)C[C@H](c2cccc(Cl)c2)[C@H]1c1ccc(Cl)cc1` [AMG-232] (top concentration 10000 nM), for which the entries for the “selective drug sensitivity score” value in assay [1], in assay [2] and in assay [3] were -6.94, 12.3 and 10.1, respectively.

Source of the values: the supplement of paper PMC8967900.
